Measured values: patent publication US9809853B2, “Calcium-activated chloride channel involved in human sweat formation” (BRAIN Biotechnology Research and Information Network AG, priority 2012, dated 2017)

Key:
[1] = biological target: T1, CaCC (Ca^2+-activated chloride channels) in NCL-SG3-hsYFP cells (Homo sapiens, UniProt Q5XXA6); assay: hsYFP fluorescence quenching (Cl^− efflux/I^− influx) assay in NCL-SG3-hsYFP CaCC activity sensor cells; type: cell-based; settings: for Effect on hsYFP quenching by Cl^− efflux/I^− influx mediated by ATP: 25 μM; for Dose dependence of inhibition of CaCC-mediated Cl^− efflux: increasing inhibitor concentrations, stimulation with 330 μM ATP
T1 sequence (Q5XXA6 1-986): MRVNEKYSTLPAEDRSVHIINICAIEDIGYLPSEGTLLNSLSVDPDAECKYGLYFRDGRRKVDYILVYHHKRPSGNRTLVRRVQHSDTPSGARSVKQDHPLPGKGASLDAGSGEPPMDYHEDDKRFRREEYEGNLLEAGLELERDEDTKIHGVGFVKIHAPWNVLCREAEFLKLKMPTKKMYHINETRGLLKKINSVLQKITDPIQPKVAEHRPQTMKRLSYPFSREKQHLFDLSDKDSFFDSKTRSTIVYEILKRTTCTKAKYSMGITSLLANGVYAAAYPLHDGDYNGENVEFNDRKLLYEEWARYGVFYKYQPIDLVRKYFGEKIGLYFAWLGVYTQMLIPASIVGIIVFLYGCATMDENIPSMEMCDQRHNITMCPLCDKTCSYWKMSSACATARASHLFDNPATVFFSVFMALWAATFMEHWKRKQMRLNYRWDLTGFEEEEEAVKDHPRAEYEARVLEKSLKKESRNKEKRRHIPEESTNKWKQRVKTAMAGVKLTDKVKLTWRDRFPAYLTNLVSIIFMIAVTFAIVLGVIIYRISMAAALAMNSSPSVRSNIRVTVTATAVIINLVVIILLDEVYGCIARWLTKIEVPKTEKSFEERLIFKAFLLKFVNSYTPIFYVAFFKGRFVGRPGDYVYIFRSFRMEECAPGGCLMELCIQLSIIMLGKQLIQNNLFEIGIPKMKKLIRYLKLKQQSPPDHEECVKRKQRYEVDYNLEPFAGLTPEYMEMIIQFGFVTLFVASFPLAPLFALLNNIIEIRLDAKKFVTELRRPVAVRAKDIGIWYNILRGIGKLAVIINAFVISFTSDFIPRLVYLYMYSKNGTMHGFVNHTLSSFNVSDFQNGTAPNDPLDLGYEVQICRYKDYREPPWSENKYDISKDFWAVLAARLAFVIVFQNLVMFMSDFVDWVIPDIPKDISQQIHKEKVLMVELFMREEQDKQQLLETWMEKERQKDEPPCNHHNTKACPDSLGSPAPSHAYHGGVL
Protocol: The halide inside the cell functionally interacts with the halide-sensitive cytoplasmic indicator protein, which leads to a quenching of the signal provided by the halide-sensitive cytoplasmic indicator protein. The more halide (such as e.g. iodide) flows into the cell, the weaker the signal emitted by the halide-sensitive cytoplasmic indicator protein becomes. This alteration of the signal emitted by the halide-sensitive cytoplasmic indicator protein is determined in a third step of the method of the invention. Due to the fact that the influx of halide into the cell is proportional to the efflux of chloride ions, the halide influx is used as a direct measure for chloride secretion. To determine the amount of chloride secretion, the fluorescence decrease is plotted against time (Δfluorescence/Δtime) and the initial slope of the resulting graph represents the iodide influx rate (sec^−1), which in turn is directly proportional to the chloride efflux rate, representing the amount of chloride secretion per time. In a fourth step, this amount of chloride secretion determined in the presence of a test compound is compared to the amount of chloride secretion determined in the absence of a said compound.
Effect of CaCC inhibitors on sweat gland-specific Ca^2+-dependent […] and proportional I^− influx was determined using NCL-SG3-hsYFP cells. Quenching of intracellular hsYFP fluorescence was measured and plotted over time. Exemplary raw data (B) and fitted curves are shown (A). NCL-SG3-hsYFP cells were incubated with 50 μM tannic acid (TA), 25 μM niflumic acid (NFA), 25 μM 5-nitro-2-(3-phenylpropyl-amino) benzoic acid (NPPB), 100 μM epigallocatechin-3-gallate (EGCG) for 15 min and then stimulated with 330 μM ATP.
Sweat gland-specific Ca^2+-dependent Cl^− efflux and a proportional I^− influx was determined using NCL-SG3-hsYFP cells. Quenching of intracellular hsYFP fluorescence was measured and plotted over time. Exemplary fitted curves are shown. NCL-SG3-hsYFP cells were incubated with increasing concentrations of tannic acid (TA) and then stimulated with 330 μM ATP. […] NCL-SG3-hsYFP cells were incubated with increasing concentrations of CaCC inhibitors and quenching of intracellular hsYFP fluorescence was measured after stimulation with ATP. The rate of […] (sec^−1), which is proportional to Ca^2+-dependent […] was calculated from the initial slope of the measured hsYFP fluorescence (ΔYFP fluorescence/Δtime) and is a direct measure of CaCC activity. IC50 values were determined by plotting the percentage of residual CaCC activity against the individual inhibitor concentration.
NCL-SG3-hsYFP cells were routinely cultivated in Williams' Medium E supplemented with 9% Fetal Calf Serum, 3.5 mM Glutamine, 9 ng/μl Hydrocortisone, Insulin-Transferrin-Selenium-Supplement (PAA Laboratories) at 37° C. and 5% CO2. For microplate assays, 20,000 cells were seeded in 96-well black-walled, clear bottom microplates (Costar) and cultivated for 2 days until cells reached confluency. Cells were washed three times with 100 μl modified Krebs-Henseleit (KH) buffer (137 mM NaCl, 2.7 mM KCl, 1.2 mM MgSO4, 1.2 mM KH2PO4, 4.2 mM NaHCO3, 1.3 mM CaCl2, 10 mM HEPES, pH 7.4) and incubated with the test compound in 50 μl KH-buffer for 15 min at 37° C. and 5% CO2. Microplates were transferred into an automated fluorescence plate reader (FlexStation®, Molecular Devices) and cellular hsYFP fluorescence was continuously recorded every 3.5 sec until end of the experiment (excitation at 485 nm, emission at 535 nm, cutoff 515 nm).

[2] = system: CaCCs in human colonic epithelial cells; settings: reference (44); cited from earlier work

Compound | Effect on hsYFP quenching by Cl^− efflux/I^− influx mediated by ATP ([1]; 15 min, then 330 μM ATP) | Dose dependence of inhibition of CaCC-mediated Cl^− efflux [1] | Quenching of hsYFP fluorescence after addition of Ca^2+-elevating agent ([1]; 1 μM) | Inhibition of CaCCs / Cl^− currents [2] | Effect on CaCC-mediated Cl^− efflux (hsYFP quenching) mediated by ATP ([1]; 100 μM, 15 min, then 330 μM ATP)
O=C(O)c1cccnc1Nc1cccc(C(F)(F)F)c1 [NFA, niflumic acid] | significant reduction of hsYFP quenching | antagonized CaCC-mediated Cl^− efflux in a dose-dependent manner |  |  | 
O=C(O)c1cc([N+](=O)[O-])ccc1NCCCc1ccccc1 [NPPB, 5-nitro-2-(3-phenylpropyl-amino) benzoic acid] | significant reduction of hsYFP quenching | antagonized CaCC-mediated Cl^− efflux in a dose-dependent manner |  |  | 
C[C@H](CCC(=O)O)C[C@H](C)C[C@H](C)C(=O)/C=C(\O)[C@H](C)C[C@H](C)C/C=C/[C@@H](C)[C@@H](O)[C@@H](C)[C@@H](O)C[C@@H]1CC[C@@](C)([C@H]2CC[C@@](C)([C@@H](C)O)O2)O1 [ionomycin] |  |  | quick quenching of the hsYFP fluorescence followed by a slow recovery |  | 
epigallocatechin-3-gallate [EGCG] |  |  |  | effectively inhibits | no effect
